Results: publication PMC8289695 (Cell Reports, 2021)

Test system: SARS-CoV-2
Assay type: cell-based, strain USA_WA1/2020
Settings: for time of addition: single treatment 1 h prior to infection, compound removed prior to infection: VPS34-IN1 and PIK-III at 5 μM

SMILES | time of addition: dosing at 2 hpi or 4 hpi | time of addition: single treatment 1 h prior to infection, compound removed prior to infection
CCC/C=C/C/C=C/C=C/C=N/NN=O [triacsin C] | remained inhibitory | minimal efficacy
Nc1ncc(-c2ccnc(Nc3ccncc3)n2)c(CC2CC2)n1 [PIK-III] | – | inhibited SARS-CoV-2 replication
CCCCCCCCCCC[C@@H](C[C@@H]1OC(=O)[C@H]1CCCCCC)OC(=O)[C@H](CC(C)C)NC=O [orlistat] | remained inhibitory | minimal efficacy
CC(C)(O)CNc1ncc(-c2ccnc(Nc3ccnc(Cl)c3)n2)c(CC2CC2)n1 [VPS34-IN1] | – | inhibited SARS-CoV-2 replication
